Source: patent US20170281611A1, “QUINOLINES AND THEIR USE FOR TREATING ENDOPLASMIC RETICULUM STRESS-CAUSED DISEASES” (EIGER BIOPHARMACEUTICALS, INC., priority 2014, published 2017)

Experiments:
[1] = tested on: HeLa cells overexpressing BI-1; experiment: Effect on [Ca2+]ER, ER cameleon in HeLa cells overexpressing BI-1; assay type: cell-based; conditions: HeLa cells overexpressing BI-1, treated 24 hrs
Description: To directly measure ER Ca^2+ content, a genetically encoded Ca^2+ indicator, ER cameleon, was used. HeLa cells were transfected with ER-cameleon encoding plasmid for 2 days before analysis. Cells were treated with a test compound for 24 hrs and imaged in Ca^2+-free HBSS upon addition of thapsigargin to deplete ER stores. Emission ratio imaging of the ER cameleon was accomplished using a 430/24 excitation filter, 450-nm dichroic mirror, and two emission filters (475/40 for CFP and 535/25 for YFP). The fluorescence ratio of YFP/CFP is a measure of relative ER Ca^2+ levels.

[2] = tested on: ob/ob mice; experiment: Effect of a SERCA agonist on the level of blood glucose; assay type: in vivo, mouse; conditions: 10 or 50 mg/kg i.p. once a day for 5 days
Description: Fasting glucose was measured at baseline and 10 hours after the administration of the test compound. Glucose levels were measured in blood samples drawn from the tail vein using the OneTouch Ultra 2 Meter (LifeScan, Inc.).

[3] = molecular target: human nerepinephrine (NET) transporter (Homo sapiens, UniProt P23975); experiment: Selectivity panel of 164 targets: NET; conditions: 10 μM in duplicate; one of only 4 hits among 164 targets
Source text: The methods used here for each target were adapted from the scientific literature to maximize reliability and reproducibility.

[4] = tested on: G6PAse, PEPCK, SCD1, DGAT2, FASn, SREBP1c, PPARα, PGC1α; experiment: Liver expression of gluconeogenesis and lipogenesis genes (real-time PCR); assay type: in vivo, mouse; conditions: liver of ob/ob mice
Description: The expression of key genes involved in gluconeogenesis and lipogenesis was measured. RNA was isolated from liver samples of the ob/ob mice and mRNA expression of the indicated genes was quantified by Real-time PCR using iTaq Fast SYBR Green Supermix with ROX (Bio-Rad) in a 7500 Real-Time PCR systems (Applied Biosystems) using mouse specific primers. Gene expression is normalized to 18s. RNA was isolated using Trizol (Invitrogen). cDNA was generated using High Capacity cDNA Reverse Transcription kit (Applied Biosystems). Real-time PCR was performed with iTaq Fast SYBR Green Supermix with ROX (Bio-Rad) in 7500 Real-Time PCR systems (Applied Biosystems) using mouse specific primers. Gene expression was normalized to 18s. Isolated liver tissue was homogenized in RIPA buffer containing protease inhibitors and phosphatase inhibitors (Roche). Protein samples were matched for their protein concentrations and 30 micrograms of each sample were applied to SDS-PASE and transferred onto nitrocellulose membrane. Membranes were then incubated with the corresponding phosphor or total primary antibodies specific for the desired proteins followed by incubation with appropriate secondary antibodies conjugated to horseradish peroxidase (Pierce) and signal intensities were visualized by Chemiluminescence (Pierce). Films from at least four independent experiments were scanned and densities of the immunoreactive bands were evaluated using NIH Image software. GAPDH (Santa Cruz Biotechnology) was used as a loading control.

[5] = tested on: PERK, elF2α, CHOP; experiment: Liver protein markers of ER stress (western blot); assay type: in vivo, mouse; conditions: liver of ob/ob mice, 50 mg/kg
Description: Proteins were analyzed by western blot and quantified. Bands were normalized to GAPDH and expressed as 100% of ob/ob+vehicle (ob). Liver tissues were homogenized with a bench-top homogenizer in an ice-cold tissue lysis buffer. The homogenized samples were centrifuged at 8,000×g for 20 min at 4° C. The lipid layer was removed and the supernatant was transferred into Eppendorf tubes. After centrifuging at 16,000×g for 60 min at 4° C., the supernatants were normalized to the same concentration and boiled at 100° C. in 1× Laemmli buffer for 5 min. The lysate was cooled to room temperature before loading for Western blot analysis. Protein lysate was resolved on SDS polyacrylamide gel and transferred onto PVDF membrane at a voltage of 100 V for 2 hrs at 4° C. The membrane was blocked in 10% blocking reagent and incubated overnight with a primary antibody in Tris-buffered saline solution/Tween (TBST)/10% blocking reagent at 4° C. After incubation, the membrane was washed three times in TBST for 20 min and incubated at room temperature with a secondary antibody in TBST/10% blocking reagent for 1 hr. The membrane was washed three times for 20 min and developed using a chemiluminescence assay system. To strip a membrane for another primary antibody, the membrane was agitated at 50° C. for 20 min in a box with stripping buffer (2% SDS and 100 mM 2-mercaptoethanol in TBS, pH 7.5). […]

[6] = tested on: ob/ob mice; experiment: Insulin tolerance test (ITT); assay type: in vivo, mouse; conditions: day 10 post-injection, compared with vehicle
Description: Both glucose (GTT) and insulin (ITT) tolerance tests were performed following a 10-hr fast and an additional 2-hr after CDNs injection with baseline blood glucose measurement taken before the beginning of the test. For the GTT, D-glucose dissolved in 0.9% NaCl was delivered intraperitoneally at a dose of 1 g/kg. The blood glucose level was measured 0, 15, 30, 60, 90, and 120 min after glucose administration. For the ITT, insulin was administered intraperitoneally at a dose of 1 IU/kg. The blood glucose level was measured 0, 15, 30, 60, 90, and 120 min after insulin administration. Glucose levels were measured in blood samples drawn from the tail vein using OneTouch Ultra 2 Meter (LifeScan, Inc.).

human nerepinephrine (NET) transporter, sequence (P23975 whole entry): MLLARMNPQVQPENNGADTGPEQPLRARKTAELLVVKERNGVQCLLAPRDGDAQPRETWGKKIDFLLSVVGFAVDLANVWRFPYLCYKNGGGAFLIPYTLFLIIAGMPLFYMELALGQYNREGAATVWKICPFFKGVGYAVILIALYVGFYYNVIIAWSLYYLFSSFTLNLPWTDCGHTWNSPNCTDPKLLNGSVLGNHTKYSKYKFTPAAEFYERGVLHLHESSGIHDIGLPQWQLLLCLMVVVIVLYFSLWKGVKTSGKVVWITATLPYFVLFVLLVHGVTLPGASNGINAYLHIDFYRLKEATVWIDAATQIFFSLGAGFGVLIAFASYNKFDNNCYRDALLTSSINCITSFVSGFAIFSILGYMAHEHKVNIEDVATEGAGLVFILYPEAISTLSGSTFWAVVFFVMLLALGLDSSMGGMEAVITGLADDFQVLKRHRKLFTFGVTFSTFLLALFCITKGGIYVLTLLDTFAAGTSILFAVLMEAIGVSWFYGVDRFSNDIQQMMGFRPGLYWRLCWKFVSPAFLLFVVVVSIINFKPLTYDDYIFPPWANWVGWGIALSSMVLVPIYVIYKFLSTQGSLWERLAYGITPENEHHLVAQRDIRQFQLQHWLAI

Cc1ccc2cccc(NC(=O)c3ccc(OC(C)C)cc3)c2n1 [Compound A12, 4-Isopropoxy-N-(2-methylquinolin-8-yl)benzamide]
[Ca2+]ER [1]: significantly restored | fasting blood glucose [2]: significantly lowered blood glucose as early as day 2 | maintenance of lower glucose level after last injection [2]: maintained a lower glucose level, to a level identical to lean mice, for over a week after the last injection | response against human nerepinephrine (NET) transporter [3]: significant responses | expression of PPARα and its target PGC1α [4]: increased | mRNA expression of G6PAse and PEPCK [4]: significantly reduced | mRNA expression of lipogenic genes (SCD1, DGAT2, FASn, SREBP1c) [4]: significantly reduced | expression of CHOP [5]: significantly reduced | phosphorylation of PERK and elF2α [5]: significantly reduced | insulin-stimulated glucose deposal (ITT) [6]: strongly enhanced
